Results reported in ChEMBL document CHEMBL1933035, “Discovery of pyrrolidine-based β-secretase inhibitors: lead advancement through conformational design for maintenance of ligand binding efficiency” (Bioorg Med Chem Lett, 2012).

Experiments:
[1] = Oral bioavailability in rat at 10 mg/kg; format: ADME, organism-based; settings: in vivo
[2] = Clearance in rat at 2 mg/kg, iv; format: ADME, organism-based; set-up: dose 2 mg/kg, route intravenous; settings: in vivo

bioavailability [1]: 44%
clearance [2]: 15 mL/min/kg
SMILES: O=C([C@@H]1CNC[C@]12CCCc1nc(Cl)ccc12)N1CC[C@@H](c2ccccc2)C[C@H]1C1CCCCC1
